The text below walks through data of paper PMC6024209, “Inhibition of P. aeruginosa c-di-GMP phosphodiesterase RocR and swarming motility by a benzoisothiazolinone derivative” (Chemical Science, 2016).

What is called Kd is a measure of binding affinity in units of concentration.

The experiment has as its target RocR (Pseudomonas aeruginosa, UniProt Q9HX69). Put plainly: RocR intrinsic fluorescence change (Kd […] by two fits); also non-competitive enzyme inhibition, Ki […]. The experiment is classed as binding.

Chain of RocR (Q9HX69 whole entry): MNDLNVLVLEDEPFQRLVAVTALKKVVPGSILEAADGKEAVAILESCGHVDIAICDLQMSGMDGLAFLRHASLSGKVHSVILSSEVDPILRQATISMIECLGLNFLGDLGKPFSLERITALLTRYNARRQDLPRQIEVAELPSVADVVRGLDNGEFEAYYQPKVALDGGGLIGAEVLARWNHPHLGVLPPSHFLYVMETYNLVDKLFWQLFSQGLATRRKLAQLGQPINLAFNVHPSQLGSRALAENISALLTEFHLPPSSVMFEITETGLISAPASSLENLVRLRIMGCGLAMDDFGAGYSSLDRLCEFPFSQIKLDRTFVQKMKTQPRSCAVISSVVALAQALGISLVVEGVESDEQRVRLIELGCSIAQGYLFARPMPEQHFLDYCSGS

`O=C(CCCn1sc2ccccc2c1=O)Nc1ccc(O)cc1` [compound 1] gave a Kd of 14 ± 2 µM.
